Measured values taken from patent publication US20250312352A1, “GLP-1R MODULATING COMPOUNDS” (Gilead Sciences, Inc., priority 2021, published 2025).
pEC50: −log10 of the molar value.

Target: T1, GLP-1R (Homo sapiens, UniProt P43220)
T1 construct: host or cells: CHO cells
Assay: GLP-1R activation cAMP assay (Assay 1 or Assay 2)
Assay type: cell-based
Conditions: cAMP increase in CHO cells stably expressing GLP-1R; compounds run on one of the two cAMP assays
Procedure, shortened: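 EC50 values come from a sigmoidal fit of HTRF-detected cAMP rise versus log agonist concentration. GLP-1R-expressing CHO cells, equilibrated 1 h at 37 °C in HBSS with HEPES and BSA, received a 10-point compound dose series for 30 min before detection.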

T1 sequence (P43220 24-463): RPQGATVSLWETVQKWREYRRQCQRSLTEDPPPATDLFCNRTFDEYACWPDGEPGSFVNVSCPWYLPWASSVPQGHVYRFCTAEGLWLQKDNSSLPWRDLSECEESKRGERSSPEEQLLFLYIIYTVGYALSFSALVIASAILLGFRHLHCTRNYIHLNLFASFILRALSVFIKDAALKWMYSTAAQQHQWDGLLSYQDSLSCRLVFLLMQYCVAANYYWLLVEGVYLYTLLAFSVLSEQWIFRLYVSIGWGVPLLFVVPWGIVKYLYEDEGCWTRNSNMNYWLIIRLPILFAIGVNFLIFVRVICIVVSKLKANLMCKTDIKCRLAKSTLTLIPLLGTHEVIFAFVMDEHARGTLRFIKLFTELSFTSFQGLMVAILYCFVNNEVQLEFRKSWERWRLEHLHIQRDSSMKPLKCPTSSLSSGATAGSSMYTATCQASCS

pEC50 | Compound
9.62 | O=C(O)c1cc(F)c2nc(Cc3cc(F)c(-c4ccc(F)c(OCc5ncc(C(F)F)s5)n4)cc3F)n(C[C@@H]3CCO3)c2c1 [Example 407, (S)-2-(4-(6-((5-(difluoromethyl)thiazol-2-yl)methoxy)-5-fluoropyridin-2-yl)-2,5-difluorobenzyl)-4-fluoro-1-(oxetan-2-ylmethyl)-1H-benzo[d]imidazole-6-carboxylic acid]
10.10 | O=C(O)c1ccc2nc(Cc3cc(F)c(-c4cccc(OCc5cnc(-c6cnn(C7CC7)c6)cc5F)n4)cc3F)n(C[C@@H]3CCO3)c2c1 [Example 161, (S)-2-(4-(6-((6-(1-cyclopropyl-1H-pyrazol-4-yl)-4-fluoropyridin-3-yl)methoxy)pyridin-2-yl)-2,5-difluorobenzyl)-1-(oxetan-2-ylmethyl)-1H-benzo[d]imidazole-6-carboxylic acid]
9.54 | Cn1nc(COc2cccc(-c3cc(F)c(Cc4nc5ccc(C(=O)O)cc5n4C[C@@H]4CCO4)cc3F)n2)cc1C(F)(F)F [Example 71, (S)-2-(2,5-difluoro-4-(6-((1-methyl-5-(trifluoromethyl)-1H-pyrazol-3-yl)methoxy)pyridin-2-yl)benzyl)-1-(oxetan-2-ylmethyl)-1H-benzo[d]imidazole-6-carboxylic acid]
8.62 | O=C(O)c1ccc2nc(Cc3cc(F)c(-c4cccc(OCc5nncs5)n4)cc3F)n(C[C@@H]3CCO3)c2c1 [Example 59, (S)-2-(4-(6-((1,3,4-thiadiazol-2-yl)methoxy)pyridin-2-yl)-2,5-difluorobenzyl)-1-(oxetan-2-ylmethyl)-1H-benzo[d]imidazole-6-carboxylic acid]
7.67 | N#Cc1ncc(COc2cccc(-c3cc(F)c(Cc4nc5ccc(C(=O)O)cc5n4C[C@@H]4CCO4)cc3F)n2)o1 [Example 168, (S)-2-(4-(6-((2-cyanooxazol-5-yl)methoxy)pyridin-2-yl)-2,5-difluorobenzyl)-1-(oxetan-2-ylmethyl)-1H-benzo[d]imidazole-6-carboxylic acid]
9.24 | O=C(O)c1ccc2nc(Cc3cc(F)c(-c4cccc(OCc5cnc(C(=O)NC6CCC6)cc5F)n4)cc3F)n(C[C@@H]3CCO3)c2c1 [Example 246, (S)-2-(4-(6-((6-(cyclobutylcarbamoyl)-4-fluoropyridin-3-yl)methoxy)pyridin-2-yl)-2,5-difluorobenzyl)-1-(oxetan-2-ylmethyl)-1H-benzo[d]imidazole-6-carboxylic acid]
10.70 | COc1cc(C(N)=O)ncc1COc1cccc(-c2cc(F)c(Cc3nc4ccc(C(=O)O)cc4n3C[C@@H]3CCO3)cc2F)n1 [Example 242, (S)-2-(4-(6-((6-carbamoyl-4-methoxypyridin-3-yl)methoxy)pyridin-2-yl)-2,5-difluorobenzyl)-1-(oxetan-2-ylmethyl)-1H-benzo[d]imidazole-6-carboxylic acid]
9.30 | CCOc1nnc(COc2nc(-c3ccc(Cc4nc5ccc(C(=O)O)cc5n4[C@@H]4COCC4(C)C)c(F)c3)ccc2F)s1 [Example 397, (S)-1-(4,4-dimethyltetrahydrofuran-3-yl)-2-(4-(6-((5-ethoxy-1,3,4-thiadiazol-2-yl)methoxy)-5-fluoropyridin-2-yl)-2-fluorobenzyl)-1H-benzo[d]imidazole-6-carboxylic acid]
9.42 | O=C(O)c1ccc2nc(Cc3cc(F)c(-c4cccc(OCc5nc(C(F)(F)F)cs5)n4)cc3F)n(C[C@@H]3CCO3)c2c1 [Example 53, (S)-2-(2,5-difluoro-4-(6-((4-(trifluoromethyl)thiazol-2-yl)methoxy)pyridin-2-yl)benzyl)-1-(oxetan-2-ylmethyl)-1H-benzo[d]imidazole-6-carboxylic acid]
8.45 | O=C(O)c1ccc2nc(Cc3cc(F)c(-c4cccc(OCc5ccn(-c6cnn(C(F)F)c6)n5)n4)cc3F)n(C[C@@H]3CCO3)c2c1 [Example 83, (S)-2-(4-(6-((1′-(difluoromethyl)-1′H-[1,4′-bipyrazol]-3-yl)methoxy)pyridin-2-yl)-2,5-difluorobenzyl)-1-(oxetan-2-ylmethyl)-1H-benzo[d]imidazole-6-carboxylic acid]

Continued, compound first:

Compound | pEC50
COCCn1c(Cc2ccc(-c3cccc(OCc4ccc(C#Cc5cnc(N6CC7CCC(C6)N7C6COC6)nc5)cc4F)n3)cc2F)nc2ccc(C(=O)O)cc21 [Example 150, 2-(2-fluoro-4-(6-((2-fluoro-4-((2-(8-(oxetan-3-yl)-3,8-diazabicyclo[3.2.1]octan-3-yl)pyrimidin-5-yl)ethynyl)benzyl)oxy)pyridin-2-yl)benzyl)-1-(2-methoxyethyl)-1H-benzo[d]imidazole-6-carboxylic acid] | 8.00
CC1(C)COC[C@H]1n1c(Cc2ccc(-c3cccc(OCc4ccc(C#N)cc4F)n3)cc2F)nc2c(F)cc(C(=O)O)cc21 [Example 440, (S)-2-(4-(6-((4-cyano-2-fluorobenzyl)oxy)pyridin-2-yl)-2-fluorobenzyl)-1-(4,4-dimethyltetrahydrofuran-3-yl)-4-fluoro-1H-benzo[d]imidazole-6-carboxylic acid] | 10.39
COCCn1c(Cc2cc(F)c(-c3cccc(OCc4ccc(C#CC5CN(C)C5)cc4F)n3)cc2F)nc2ccc(C(=O)O)cc21 [Example 234, 2-[[2,5-difluoro-4-[6-[[2-fluoro-4-[2-(1-methylazetidin-3-yl)ethynyl]phenyl]methoxy]-2-pyridyl]phenyl]methyl]-3-(2-methoxyethyl)benzimidazole-5-carboxylic acid] | 8.23
O=C(O)c1ccc2nc(Cc3cc(F)c(-c4cccc(OCc5nnc(OC6CCC6)s5)n4)cc3F)n(C[C@@H]3CCO3)c2c1 [Example 344, (S)-2-(4-(6-((5-cyclobutoxy-1,3,4-thiadiazol-2-yl)methoxy)pyridin-2-yl)-2,5-difluorobenzyl)-1-(oxetan-2-ylmethyl)-1H-benzo[d]imidazole-6-carboxylic acid] | 10.26
COCCn1c(Cc2cc(F)c(-c3cccc(OCc4ccc(C#CC5COC5)cc4F)n3)cc2F)nc2ccc(C(=O)O)cc21 [Example 231, 2-[[2,5-difluoro-4-[6-[[2-fluoro-4-[2-(oxetan-3-yl)ethynyl]phenyl]methoxy]-2-pyridyl]phenyl]methyl]-3-(2-methoxyethyl)benzimidazole-5-carboxylic acid] | 8.82
O=C(O)c1ccc2nc(Cc3cc(F)c(-c4cccc(OCc5nc6cc(Cl)ccc6s5)n4)cc3F)n(C[C@@H]3CCO3)c2c1 [Example 35, (S)-2-(4-(6-((5-chlorobenzo[d]thiazol-2-yl)methoxy)pyridin-2-yl)-2,5-difluorobenzyl)-1-(oxetan-2-ylmethyl)-1H-benzo[d]imidazole-6-carboxylic acid] | 9.66
O=C(O)c1ccc2nc(Cc3cc(F)c(-c4cccc(OCc5cnc(C(=O)NCC(F)(F)F)cc5Cl)n4)cc3F)n(C[C@@H]3CCO3)c2c1 [Example 191, (S)-2-(4-(6-((4-chloro-6-((2,2,2-trifluoroethyl)carbamoyl)pyridin-3-yl)methoxy)pyridin-2-yl)-2,5-difluorobenzyl)-1-(oxetan-2-ylmethyl)-1H-benzo[d]imidazole-6-carboxylic acid] | 9.16
Cn1nccc1-c1cnc(COc2cccc(-c3cc(F)c(Cc4nc5ccc(C(=O)O)cc5n4C[C@@H]4CCO4)cc3F)n2)s1 [Example 94, (S)-2-(2,5-difluoro-4-(6-((5-(1-methyl-1H-pyrazol-5-yl)thiazol-2-yl)methoxy)pyridin-2-yl)benzyl)-1-(oxetan-2-ylmethyl)-1H-benzo[d]imidazole-6-carboxylic acid] | 8.54
NC(=O)c1ccc(COc2cccc(-c3cc(F)c(Cc4nc5ccc(C(=O)O)cc5n4C[C@@H]4CCO4)cc3F)n2)c(F)n1 [Example 240, 2-[[4-[6-[(6-carbamoyl-2-fluoro-3-pyridyl)methoxy]-2-pyridyl]-2,5-difluoro-phenyl]methyl]-3-[[(2S)-oxetan-2-yl]methyl]benzimidazole-5-carboxylic acid] | 8.95
COc1nc(C#Cc2cnn(C)c2)ccc1COc1cccc(-c2cc(F)c(Cc3nc4ccc(C(=O)O)cc4n3C[C@@H]3CCO3)cc2F)n1 [Example 360, (S)-2-(2,5-difluoro-4-(6-((2-methoxy-6-((1-methyl-1H-pyrazol-4-yl)ethynyl)pyridin-3-yl)methoxy)pyridin-2-yl)benzyl)-1-(oxetan-2-ylmethyl)-1H-benzo[d]imidazole-6-carboxylic acid] | 9.76
CCOc1nnc(COc2cccc(-c3cc(F)c(Cc4nc5ccc(C(=O)O)cc5n4[C@@H]4COCC4(C)C)c(F)c3F)n2)s1 [Example 263, (S)-1-(4,4-dimethyltetrahydrofuran-3-yl)-2-(4-(6-((5-ethoxy-1,3,4-thiadiazol-2-yl)methoxy)pyridin-2-yl)-2,3,6-trifluorobenzyl)-1H-benzo[d]imidazole-6-carboxylic acid] | 9.88
CC(F)(F)c1cnc(COc2nc(-c3cc(F)c(Cc4nc5c(F)cc(C(=O)O)cc5n4[C@@H]4COCC4(C)C)cc3F)ccc2F)s1 [Example 338, (S)-2-(4-(6-((5-(1,1-difluoroethyl)thiazol-2-yl)methoxy)-5-fluoropyridin-2-yl)-2,5-difluorobenzyl)-1-(4,4-dimethyltetrahydrofuran-3-yl)-4-fluoro-1H-benzo[d]imidazole-6-carboxylic acid] | 9.66
Cn1c(COc2cccc(-c3cc(F)c(Cc4nc5ccc(C(=O)O)cc5n4C[C@@H]4CCO4)cc3F)n2)nc2ccccc21 [Example 48, (S)-2-(2,5-difluoro-4-(6-((1-methyl-1H-benzo[d]imidazol-2-yl)methoxy)pyridin-2-yl)benzyl)-1-(oxetan-2-ylmethyl)-1H-benzo[d]imidazole-6-carboxylic acid] | 8.63
Cn1cc(C#Cc2cc(F)c(COc3cccc(-c4cc(F)c(Cc5nc6ccc(C(=O)O)cc6n5C[C@@H]5CCO5)cc4F)n3)s2)cn1 [Example 117, (S)-2-(2,5-difluoro-4-(6-((3-fluoro-5-((1-methyl-1H-pyrazol-4-yl)ethynyl)thiophen-2-yl)methoxy)pyridin-2-yl)benzyl)-1-(oxetan-2-ylmethyl)-1H-benzo[d]imidazole-6-carboxylic acid] | 9.55
